Test results taken from patent publication US9776990B2, “Isoindolone derivatives” (AbbVie Inc., priority 2012, dated 2017).

Assays:
[1] = target: BRD4 (BDI_K57-E168) (Homo sapiens (Human), UniProt O60885); experiment: TR-FRET bromodomain binding assay, BRD4 first bromodomain; settings: His-tagged BD1, 100 nM Alexa647 probe
Procedure: (§1) A time-resolved fluorescence resonance energy transfer (TR-FRET) assay was used to determine the affinities of compounds of the Examples listed in Table 1 for each bromodomain of BRD4. His-tagged first (BD1: amino acids K57-E168) and second (BD2: amino acids E352-E168) bromodomains of BRD4 were expressed and purified. An Alexa647-labeled BET-inhibitor was used as the fluorescent probe in the assay.
(§2) Compound dilution series were prepared in DMSO via a 3-fold serial dilution from 2.5 mM to 42 nM. Compounds were then diluted 6:100 in assay buffer (20 mM Sodium Phosphate, pH 6.0, 50 mM NaCl, 1 mM EDTA, 0.01% Triton X-100, 1 mM DTT) to yield 3× working solutions. Six microliters (μL) of the working solution was then transferred to white, low-volume assay plates (Costar #3673). A 1.5× assay mixture containing His-tagged bromodomain, Europium-conjugated anti-His antibody (Invitrogen PV5596) and the Alexa-647-conjugated probe molecule was also prepared. Twelve μL of this solution were added to the assay plate to reach a final volume of 18 μL. The final concentration of 1× assay buffer contains 2% DMSO, 50 μM−0.85 nM compound, 8 nM bromodomain, 1 nM antibody and 100 or 30 nM probe (for BDI or BDII, respectively). After a one-hour incubation at room temperature, TR-FRET ratios were determined using an Envision multilabel plate reader (Ex 340, Em 495/520).
(§3) TR-FRET data were normalized to the means of 24 no-compound controls (“high”) and 8 controls containing 1 μM un-labeled probe (“low”). Percent inhibition was plotted as a function of compound concentration and the data were fit with the 4 parameter logistic equation to obtain IC50s Inhibition constants (Ki) were calculated from the IC50s, probe Kd and probe concentration. Typical Z′ values were between 0.65 and 0.75. The minimum significant ratio was determined to evaluate assay reproducibility (Eastwood et al., (2006) J Biomol Screen, 11: 253-261). The MSR was determined to be 2.03 for BDI and 1.93 for BDII, and a moving MSR (last six run MSR overtime) for both BDI and BDII was typically <3.

[2] = target: BRD4 (BDII_E352-M457) (Homo sapiens (Human), UniProt O60885); experiment: TR-FRET bromodomain binding assay, BRD4 second bromodomain; settings: His-tagged BD2, 30 nM Alexa647 probe
Procedure: as §1, §2, §3

[3] = tested on: breast cancer cell line MX-1; experiment: MX-1 cell line proliferation assay (3-day, Cell Titer Glo); assay type: cell-based, human; settings: Homo sapiens, MX1, MX-1 cells, 72 hours, read-out: Cellular proliferation: EC50
Procedure: The impact of compounds of the Examples on cancer cell proliferation was determined using the breast cancer cell line MX-1 (ATCC) in a 3-day proliferation assay. MX-1 cells were maintained in RPMI supplemented with 10% FBS at 37 C.° and an atmosphere of 5% CO2. For compound testing, MX-1 cells were plated in 96-well black bottom plates at a density of 5000 cells/well in 90 μl of culture media and incubated at 37° overnight to allow cell adhesion and spreading. Compound dilution series were prepared in DMSO via a 3-fold serial dilution from 3 mM to 0.1 μM. The DMSO dilution series were then diluted 1:100 in phosphate buffered saline, and 10 μL of the resulted solution were added to the appropriate wells of the MX-1 cell plate. The final compound concentrations in the wells were 3, 1, 0.3, 0.1, 0.03, 0.01, 0.003, 0.001, 0.0003 and 0.0001 μM.
Luminescence readings from the Cell Titer Glo assay were normalized to the DMSO treated cells and analyzed using the GraphPad Prism software with sigmoidal curve fitting to obtain EC50s. The minimum significant ratio (MSR) was determined to evaluate assay reproducibility (Eastwood et al., (2006) J Biomol Screen, 11: 253-261).

| Ki [1] | Ki [2] | EC50 [3] | Compound |
| --- | --- | --- | --- |
| 0.148 µM | 0.365 µM | 0.232 µM | Cc1[nH]c(-c2cc(N)ccc2Oc2ccccc2)c2c1C(=O)CCC2 [Example 39, 1-(5-amino-2-phenoxyphenyl)-3-methyl-2,5,6,7-tetrahydro-4H-isoindol-4-one] |
| 1.35 µM | 2.62 µM | > 3 µM | Cc1[nH]c(-c2ccccc2OCc2ccccn2)c2c1C(=O)CCC2 [Example 34, 3-methyl-1-[2-(pyridin-2-ylmethoxy)phenyl]-2,5,6,7-tetrahydro-4H-isoindol-4-one] |
| 0.184 µM | 0.382 µM | 1.78 µM | Cc1[nH]c(-c2ccccc2Oc2ccccc2)c2c1C(=O)CC(C)C2 (centres unmarked) [Example 65, 3,6-dimethyl-1-(2-phenoxyphenyl)-2,5,6,7-tetrahydro-4H-isoindol-4-one] |
| 0.151 µM | 2.07 µM | 0.6 µM | Cc1[nH]c(-c2cc(NS(C)(=O)=O)ccc2Oc2ccccc2)c2c1C(=O)CC(CC(C)C)C2 (centres unmarked) [Example 69, N-{3-[3-methyl-6-(2-methylpropyl)-4-oxo-4,5,6,7-tetrahydro-2H-isoindol-1-yl]-4-phenoxyphenyl}methanesulfonamide] |
|  |  | 3.18 µM | Cc1[nH]c(-c2cccc3ccccc23)c2c1C(=O)CCC2 [Example 19, 3-methyl-1-(naphthalen-1-yl)-2,5,6,7-tetrahydro-4H-isoindol-4-one] |
| 2.7 µM | 9.97 µM |  | COc1ccccc1-c1[nH]c(C)c2c1CCCC2=O [Example 6, 1-(2-methoxyphenyl)-3-methyl-2,5,6,7-tetrahydro-4H-isoindol-4-one] |
| 0.255 µM | 0.504 µM |  | Cc1[nH]c(-c2ccccc2Oc2ccccc2)c2c1C(=O)CCC2 [Example 2, 3-methyl-1-(2-phenoxyphenyl)-2,5,6,7-tetrahydro-4H-isoindol-4-one] |

The next lines start with the molecule.

| Compound | Ki [1] | Ki [2] | EC50 [3] |
| --- | --- | --- | --- |
| Cc1[nH]c(-c2ccccc2OCCN2CCOCC2)c2c1C(=O)CCC2 [Example 33, 3-methyl-1-{2-[2-(morpholin-4-yl)ethoxy]phenyl}-2,5,6,7-tetrahydro-4H-isoindol-4-one] | 1.04 µM | 8.16 µM | > 3 µM |
| CCS(=O)(=O)Nc1ccc(OC2CCC(F)(F)CC2)c(-c2[nH]c(C)c3c2CCCC3=O)c1 [Example 52, N-{4-[(4,4-difluorocyclohexyl)oxy]-3-(3-methyl-4-oxo-4,5,6,7-tetrahydro-2H-isoindol-1-yl)phenyl}ethanesulfonamide] | 0.009 µM | 0.088 µM | 0.184 µM |
| Cc1[nH]c(-c2cccc3[nH]ccc23)c2c1C(=O)CCC2 [Example 10, 1-(1H-indol-4-yl)-3-methyl-2,5,6,7-tetrahydro-4H-isoindol-4-one] | 1.79 µM | 4.06 µM | 1.23 µM |
| Cc1[nH]c(-c2cccc(NS(C)(=O)=O)c2)c2c1C(=O)CC(C)(C)C2 [Example 64, N-[3-(3,6,6-trimethyl-4-oxo-4,5,6,7-tetrahydro-2H-isoindol-1-yl)phenyl]methanesulfonamide] | 0.576 µM | 0.409 µM | > 3 µM |
| Cc1[nH]c(-c2ccccc2)c2c1C(=O)CCC2 [Example 1, 3-methyl-1-phenyl-2,5,6,7-tetrahydro-4H-isoindol-4-one] | 3.68 µM | 3.07 µM | 3.4 µM |
| Cc1[nH]c(-c2ccccc2-c2ccco2)c2c1C(=O)CCC2 [Example 27, 1-[2-(furan-2-yl)phenyl]-3-methyl-2,5,6,7-tetrahydro-4H-isoindol-4-one] | 2.76 µM | 6.58 µM |  |
| Cc1ccc(C)c(-c2[nH]c(C)c3c2CC(C)(C)CC3=O)c1 [Example 60, 1-(2,5-dimethylphenyl)-3,6,6-trimethyl-2,5,6,7-tetrahydro-4H-isoindol-4-one] | 3.37 µM | 2.7 µM |  |
| Cc1[nH]c(-c2cccc3[nH]cnc23)c2c1C(=O)CCC2 [Example 21, 1-(1H-benzimidazol-4-yl)-3-methyl-2,5,6,7-tetrahydro-4H-isoindol-4-one] | 1.86 µM | 5.92 µM |  |
